Columns and labels:
[1] = molecular target: T1, human GPC3 on transfected CHO-S cells (Homo sapiens, UniProt P51654); assay: Binding to transfected CHO-S cells by flow cytometry; details: 24 h at 4 °C
T1 construct: expressed in transfected cells; host or cells: CHO-S cells, transient transfection (Neon system)
Method: (§1) Following transfection, cells were seeded at 50,000 cells/well in V-bottom 96-well plates and treated with antibody for 24 hours at 4° C. to prevent internalization. […] Following incubation and washing, fluorescence was detected by flow cytometry on a BD LSRFortessa™ Cell Analyzer (BD Biosciences, Franklin Lake, NJ) with 1,000 minimum events collected per well.
as §1

[2] = tested on: JHH-5 cells (mid GPC3-expressing); assay: Internalization by flow cytometry (quenched AF488); format: cell-based; details: 5 nM, 24 h
Method: Cells were seeded at 50,000 cells/well in 48-well plates and incubated overnight under standard culturing conditions (37° C./5% CO2) Gibco™ William's E Medium, GlutaMAX™ Supplement (Thermo Fisher Scientific, Waltham, MA; Cat. No. 32551020) with 10% FBS (Thermo Fisher Scientific, Waltham, MA; Cat. No. 12483020). Coupled antibodies were added to cells the following day at 5 nM and incubated under standard culturing conditions for 24 hours to allow for internalization. Following incubation, cells were dissociated, washed, and surface AF488 fluorescence was quenched using an anti-AF488 antibody (Life Technologies, Carlsbad, CA; Cat. No. A-11094) at 100 nM for 30 minutes at 4° C. Quenched AF488 fluorescence (internalized fluorescence) was detected by flow cytometry on a BD LSRFortessa™ Cell Analyzer (BD Biosciences, Franklin Lake, NJ) with 1,000 minimum events collected per well.
Briefly, plasma stress was carried out by incubating M3-H18L6 LC-modified antibodies in mouse plasma (BioIVT, Westbury, NY; Cat. No. MSE00PL38NC-0103070) for 14 days in a 37° C./5% CO2 incubator. […] Following incubation and washing, fluorescence was detected by flow cytometry on a BD LSRFortessa™ Cell Analyzer (BD Biosciences, Franklin Lake, NJ) with 1,000 minimum events collected per well. […]

JHH-7 cells (GPC3-high) = assay: On-cell binding by flow cytometry; details: flow cytometry
Method: (§2) Briefly, cells were seeded at 50,000 cells/well in V-bottom 96-well plates and treated with antibody for 24 hours at 4° C. to prevent internalization. […] Following incubation and washing, fluorescence was detected by flow cytometry on a BD LSRFortessa™ Cell Analyzer (BD Biosciences, Franklin Lake, NJ) with 1,000 minimum events collected per well. AF647/APC-A GeoMean (fluorescence signal geometric mean, proportional to anti-Human AF647 binding) in live cell population was plotted against antibody concentration using GraphPad Prism Version 9 (GraphPad Software, San Diego, CA). The Bmax, Curve Hill Slope (h) and Kd values were derived from the “Specific binding with Hill slope” nonlinear regression curve fit in GraphPad Prism Version 9.
(§3) The on-cell binding capabilities of light chain (LC)-modified M3-H18L6 antibody constructs were assessed on JHH-7 (hepatocellular carcinoma; GPC3-high) and JHH-5 (hepatocellular carcinoma; GPC3-mid) by flow cytometry as described below. […] The assay was carried out as described in Example 13.
(§4) Briefly, plasma stress was carried out by incubating M3-H18L6 LC-modified antibodies in mouse plasma (BioIVT, Westbury, NY; Cat. No. MSE00PL38NC-0103070) for 14 days in a 37° C./5% CO2 incubator. […] Following incubation and washing, fluorescence was detected by flow cytometry on a BD LSRFortessa™ Cell Analyzer (BD Biosciences, Franklin Lake, NJ) with 1,000 minimum events collected per well. AF647/APC-A GeoMean (fluorescence signal geometric mean, proportional to anti-Human AF647 binding) in live cell population was plotted against antibody concentration using GraphPad Prism Version 9 (GraphPad Software, San Diego, CA). […] Following incubation, cells were dissociated, washed, and surface AF488 fluorescence was quenched using an anti-AF488 antibody (Life Technologies, Carlsbad, CA; Cat. No. A-11094) at 100 nM for 30 minutes at 4° C. Quenched AF488 fluorescence (internalized fluorescence) was detected by flow cytometry on a BD LSRFortessa™ Cell Analyzer (BD Biosciences, Franklin Lake, NJ) with 1,000 minimum events collected per well.

JHH-5 cells (GPC3-mid) = assay: On-cell binding by flow cytometry
Method: as §2, §3, §4

## palivizumab
[1]
  binding to CHO-S cells expressing human GPC3, in words: did not exhibit any binding
[2]
  internalization, in words: minimal internalization
JHH-7 cells (GPC3-high)
  binding to JHH-7 cells, in words: did not exhibit any binding
JHH-5 cells (GPC3-mid)
  binding to JHH-5 cells, in words: did not exhibit any binding

From patent publication US20250295799A1, “ANTIBODY-DRUG CONJUGATES TARGETING GLYPICAN-3 AND METHODS OF USE” (Zymeworks BC Inc., priority 2022, published 2025)
